41 molecules from patent US20160137639A1, “TRIAZOLE-ISOXAZOLE COMPOUND AND MEDICAL USE THEREOF” (JAPAN TOBACCO INC., priority 2012, published 2016) can be followed below.

The target of test [1] is T1, human RORγ (Homo sapiens, UniProt P51449).
T1 construct: human, NM_005060.3 and from Ser253 to Lys518; expressed in transfected cells; host or cells: CHO cells (transient co-transfection with pG5-Luc reporter)
T1 sequence (P51449 253-518): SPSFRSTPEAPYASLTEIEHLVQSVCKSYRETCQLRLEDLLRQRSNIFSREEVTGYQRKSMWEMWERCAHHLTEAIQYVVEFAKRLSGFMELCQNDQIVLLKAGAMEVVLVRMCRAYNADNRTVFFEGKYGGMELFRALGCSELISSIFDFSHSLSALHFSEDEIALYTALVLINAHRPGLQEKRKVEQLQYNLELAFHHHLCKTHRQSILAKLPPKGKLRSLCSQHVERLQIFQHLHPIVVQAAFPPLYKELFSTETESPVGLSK
The experiment in a line: Luciferase reporter gene assay of inhibitory effect against RORγ transcriptional activity (GAL4-hRORγ plasmid in CHO cells). The test is classed as cell-based. Particulars: read-out: LUC EC50 (μM) hRORg.

The target of test [2] is T2, mouse RORγ (Mus musculus, UniProt P51450).
T2 construct: mouse, NM_011281.2 and from Ile251 to Lys516; expressed in transfected cells; host or cells: CHO cells (transient co-transfection with pG5-Luc reporter)
T2 sequence (P51450 251-516): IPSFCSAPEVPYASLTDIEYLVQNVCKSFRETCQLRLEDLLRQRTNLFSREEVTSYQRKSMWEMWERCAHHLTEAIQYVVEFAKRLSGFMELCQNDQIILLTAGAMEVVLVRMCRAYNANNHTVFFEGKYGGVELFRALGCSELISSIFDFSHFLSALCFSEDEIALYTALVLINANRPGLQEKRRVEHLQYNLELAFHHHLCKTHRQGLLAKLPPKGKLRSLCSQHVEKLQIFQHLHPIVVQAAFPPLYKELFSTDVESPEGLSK
The experiment in a line: Luciferase reporter gene assay of inhibitory effect against RORγ transcriptional activity (GAL4-mRORγ plasmid in CHO cells). The test is classed as cell-based. The following applies: read-out: LUC EC50 (μM) mRORg. In a few lines:
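CHO cells transiently co-transfected with GAL4-mouse RORγ LBD (Ile251–Lys516) and GAL4-dependent luciferase reporter; eight compound concentrations, 0.1% DMSO, 2 days at 37 °C. Luminescence as %-of-vehicle control; EC50 by curve fit, cytotoxic concentrations excluded.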
(A reporter such as luciferase makes a cellular process visible.)

For the molecule `Cc1ccc(NC(=O)C[C@H](CCC(=O)O)c2noc(-c3noc(CCC(C)C)c3Cl)c2C2CC2)c(Cl)c1` [Example E-10], the EC50 in test [1] and in test [2] was less than 3 µM throughout.

Turning to `Cc1ccc(NC(=O)C[C@H](CCC(=O)O)c2noc(-c3noc(CC(C)C)n3)c2C2CC2)c(Cl)c1` [Example E-11], the EC50 in test [1] and in test [2] was less than 3 µM throughout.

For the molecule `Cc1ccc(NC(=O)C[C@H](CCC(=O)O)c2noc(-c3cc(CC(C)C)on3)c2C(F)(F)F)c(F)c1` [Example E-12], the figures for the EC50 in test [1] and in test [2] were greater than 3 µM and less than 3 µM, respectively.

Turning to `Cc1ccc(NC(=O)C[C@H](CCC(=O)O)c2noc(-c3cc(CCC(C)C)on3)c2C(F)(F)F)c(F)c1` [Example E-13], the EC50 is greater than 3 µM in test [1] and less than 3 µM in test [2].

Consider `Cc1ccc(NC(=O)C[C@H](CCC(=O)O)c2noc(-c3nnc(CC(C)C)s3)c2C2CC2)c(Cl)c1` [Example E-14], for which the EC50 in test [1] and in test [2] was less than 3 µM each time.

Regarding `Cc1ccc(NC(=O)C[C@H](CCC(=O)O)c2noc(-c3ncc(CC(C)C)s3)c2C2CC2)c(Cl)c1` [Example E-15], the EC50 in test [1] and in test [2] was less than 3 µM each time.

Regarding `Cc1ccc(NC(=O)C[C@H](CCC(=O)O)c2noc(-c3cc(CCC(C)C)on3)c2C(F)(F)F)c(Cl)c1` [Example E-16], the EC50 in test [1] and in test [2] was less than 3 µM in each case.

Turning to `Cc1ccc(NC(=O)C[C@H](CCC(=O)O)c2noc(-c3cc(C4CC(CC(C)(C)C)C4)on3)c2C2CC2)c(Cl)c1` (stereo partly shown) [Example E-17], the EC50 in test [1] and in test [2] was less than 3 µM each time.

As for `Cc1ccc(NC(=O)C[C@H](CCC(=O)O)c2noc(-c3ncc(CC(C)C)o3)c2C2CC2)c(Cl)c1` [Example E-18], the EC50 in test [1] and in test [2] was less than 3 µM in each case.

Take `Cc1ccc(NC(=O)C[C@H](CCC(=O)O)c2noc(-c3cn(CCC(C)(C)C)nc3C(F)(F)F)c2C2CC2)c(F)c1` [Example E-19]: the EC50 in test [1] and in test [2] was greater than 3 µM in each case.

As for `Cc1ccc(NC(=O)C[C@H](CCC(=O)O)c2noc(-c3cc(C(F)(F)C(C)C)on3)c2C2CC2)c(Cl)c1` [Example E-20], the concentration giving a half-maximal response (EC50) in test [1] and in test [2] was less than 3 µM in each case.

On to `Cc1ccc(NC(=O)C[C@H](CCCC(=O)O)c2noc(-c3cc(CCC(C)C)on3)c2C2CC2)c(Cl)c1` [Example E-21], for which the EC50 in test [1] and in test [2] was less than 3 µM each time.

Regarding `Cc1ccc(NC(=O)C[C@H](CCC(=O)O)c2noc(-c3cc(CCC(C)(C)C)on3)c2C2CC2)c(Cl)c1` [Example E-22], the EC50 in test [1] and in test [2] was less than 3 µM each time.

In the case of `Cc1ccc(NC(=O)C[C@H](CCC(=O)O)c2noc(-c3cc(C4(CC(C)C)CC4)on3)c2C2CC2)c(Cl)c1` [Example E-23], the EC50 in test [1] and in test [2] was less than 3 µM each time.

In the case of `Cc1ccc(NC(=O)C[C@H](CCC(=O)O)c2noc(-c3cc(C4CCCC4)on3)c2C2CC2)c(Cl)c1` [Example E-24], the EC50 in test [1] and in test [2] was less than 3 µM each time.

`Cc1ccc(NC(=O)C[C@H](CCC(=O)O)c2noc(-c3cc(CC(C)C)nn3C)c2C2CC2)c(Cl)c1` [Example E-25]: the results for the EC50 in test [1] and in test [2] were greater than 3 µM and less than 3 µM, respectively.

As for `Cc1ccc(NC(=O)C[C@H](CCC(=O)O)c2noc(-c3cc(CC(C)C)n(C)n3)c2C2CC2)c(Cl)c1` [Example E-26], the EC50 in test [1] and in test [2] was less than 3 µM each time.

As to `Cc1ccc(NC(=O)C[C@H](CCC(=O)O)c2noc(-c3nc(C)c(CC(C)C)s3)c2C2CC2)c(Cl)c1` [Example E-27], the EC50 in test [1] and in test [2] was less than 3 µM throughout.

Regarding `Cc1ccc(NC(=O)C[C@H](CCC(=O)O)c2noc(-c3ccc(CC(C)C)o3)c2C2CC2)c(Cl)c1` [Example E-28], the EC50 in test [1] and in test [2] was less than 3 µM in each case.

In the case of `Cc1ccc(NC(=O)C[C@H](CCC(=O)O)c2noc(-c3noc(CC(C)C)c3C)c2C2CC2)c(Cl)c1` [Example E-29], the EC50 in test [1] and in test [2] was less than 3 µM in each case.

Take `Cc1ccc(NC(=O)C[C@H](CCC(=O)O)c2noc(-c3cc(C4CC(C)(C)C4)on3)c2C2CC2)c(Cl)c1` [Example E-30]: the EC50 in test [1] and in test [2] was less than 3 µM each time.

Regarding `Cc1ccc(NC(=O)C[C@H](CCC(=O)O)c2noc(-c3cc(CCC(C)(C)C)on3)c2C2CC2)c(F)c1` [Example E-31], the EC50 in test [1] and in test [2] was less than 3 µM each time.

With `Cc1ccc(NC(=O)C[C@H](CCC(=O)O)c2noc(-c3cc(CCC(C)(C)C)on3)c2C2CC2)c(C)c1` [Example E-32], the EC50 in test [1] and in test [2] was less than 3 µM in each case.

As to `Cc1ccc(NC(=O)C[C@H](CCC(=O)O)c2noc(-c3cc(C(F)(F)CC(C)C)on3)c2C2CC2)c(Cl)c1` [Example E-33], the concentration giving a half-maximal response (EC50) in test [1] and in test [2] was less than 3 µM throughout.

Consider `CC(C)(C)CCc1cc(-c2onc([C@@H](CCC(=O)O)CC(=O)Nc3ccc(F)cc3Cl)c2C2CC2)no1` [Example E-34], for which the EC50 in test [1] and in test [2] was less than 3 µM throughout.

In the case of `Cc1ccc(NC(=O)C[C@H](CCC(=O)O)c2noc(-c3cc(C(F)(F)CC(C)(C)C)on3)c2C2CC2)c(Cl)c1` [Example E-35], the EC50 in test [1] and in test [2] was less than 3 µM in each case.

`Cc1ccc(NC(=O)C[C@H](CCC(=O)O)c2noc(-c3csc(CC(C)C)n3)c2C2CC2)c(Cl)c1` [Example E-36]: the EC50 in test [1] was greater than 3 µM; in test [2], less than 3 µM.

In the case of `Cc1cc(F)ccc1NC(=O)C[C@H](CCC(=O)O)c1noc(-c2cc(CCC(C)(C)C)on2)c1C1CC1` [Example E-37], the EC50 in test [1] and in test [2] was less than 3 µM throughout.

With `Cc1cc(Cl)ccc1NC(=O)C[C@H](CCC(=O)O)c1noc(-c2cc(CCC(C)(C)C)on2)c1C1CC1` [Example E-38], the EC50 in test [1] and in test [2] was less than 3 µM throughout.

Regarding `Cc1ccc(NC(=O)C[C@H](CCC(=O)O)c2noc(-c3cc(C(F)(F)C4CCCC4)on3)c2C2CC2)c(Cl)c1` [Example E-39], the EC50 in test [1] and in test [2] was less than 3 µM each time.

As for `Cc1ccc(NC(=O)C[C@H](CCC(=O)O)c2noc(-c3cc(C(F)(F)C(C)(C)C)on3)c2C2CC2)c(Cl)c1` [Example E-40], the EC50 in test [1] and in test [2] was less than 3 µM each time.

For the molecule `Cc1ccc(NC(=O)C[C@H](CCC(=O)O)c2noc(-c3cnc(CC(C)C)s3)c2C2CC2)c(Cl)c1` [Example E-41, Sodium (S)-5-(2-chloro-4-methyl-phenylcarbamoyl)-4-[4-cyclopropyl-5-(2-isobutyl-thiazol-5-yl)-isoxazol-3-yl]-pentanoate], the EC50 in test [1] and in test [2] was less than 3 µM throughout.

Regarding `Cc1ccc(NC(=O)C[C@H](CCC(=O)O)c2noc(-c3cc(C4(C)CCCC4)on3)c2C2CC2)c(Cl)c1` [Example E-42], the EC50 in test [1] and in test [2] was less than 3 µM each time.

Take `Cc1ccc(NC(=O)C[C@H](CCC(=O)O)c2noc(-c3cc(C(C)(C)C)on3)c2C2CC2)c(Cl)c1` [Example E-43]: the EC50 in test [1] and in test [2] was less than 3 µM throughout.

Take `Cc1ccc(NC(=O)C[C@H](CCC(=O)O)c2noc(-c3cc(C4C(C)(C)C4(C)C)on3)c2C2CC2)c(Cl)c1` [Example E-44]: the 50% effective concentration (EC50) in test [1] and in test [2] was less than 3 µM each time.

On to `Cc1cc(Cl)c(NC(=O)C[C@H](CCC(=O)O)c2noc(-c3cc(CCC(C)(C)C)on3)c2C2CC2)cc1F` [Example E-45], for which the EC50 in test [1] and in test [2] was less than 3 µM throughout.

Consider `Cc1ccc(NC(=O)C[C@H](CCC(=O)O)c2noc(-c3cc(C(F)(F)C(C)(C)C)on3)c2C2CC2)c(F)c1` [Example E-46], for which the EC50 in test [1] and in test [2] was less than 3 µM in each case.

With `Cc1ccc(NC(=O)C[C@H](CCC(=O)O)c2noc(-c3cc(C4CC(F)(F)C4)on3)c2C2CC2)c(Cl)c1` [Example E-47], the EC50 in test [1] and in test [2] was less than 3 µM throughout.

As to `CC(C)(C)C(F)(F)c1cc(-c2onc([C@@H](CCC(=O)O)CC(=O)Nc3ccc(F)cc3Cl)c2C2CC2)no1` [Example E-48], the EC50 in test [1] and in test [2] was less than 3 µM each time.

As for `CC(C)(C)C(F)(F)c1cc(-c2onc([C@@H](CCC(=O)O)CC(=O)Nc3ccc(Cl)cc3F)c2C2CC2)no1` [Example E-49, Sodium (S)-5-(4-chloro-2-fluoro-phenylcarbamoyl)-4-[4′-cyclopropyl-5-(1,1-difluoro-2,2-dimethylpropyl)-[3,5′]biisoxazolyl-3′-yl]-pentanoate], the EC50 in test [1] and in test [2] was less than 3 µM each time.

In the case of `Cc1ccc(NC(=O)C[C@H](CCC(=O)O)c2noc(-c3cc(CCC(F)(F)F)on3)c2C2CC2)c(Cl)c1` [Example E-50], the EC50 in test [1] and in test [2] was less than 3 µM each time.

The term EC50 denotes the concentration giving half of the maximal effect.
